From publication PMC9150124, “Design of a Potent, Selective, and Brain-Penetrant Inhibitor of Wnt-Deactivating Enzyme Notum by Optimization of a Crystallographic Fragment Hit” (Journal of Medicinal Chemistry, 2022)

Columns and labels:
Assay in all cases: SelectScreen kinase profiling, SSBK ZLyte SP Technology
Format in all cases: biochemical
[1] = target: kinase named in conditions (Homo sapiens, UniProt P35968); details: KDR (VEGFR2), 10 μM
Method: (§1) Kinase selectivity screening was performed by Thermo Fisher Scientific (Paisley, U.K.) in their SelectScreen Biochemical Kinase Profiling Service. Assay information and data are presented in the Supporting Information.
(§2) Kinase selectivity screening was performed by ThermoFisher Scientific (Paisley, U.K.) in their SelectScreenTM
(§3) Biochemical Kinase Profiling service .

[2] = target: kinase named in conditions (Homo sapiens, UniProt P07949, V804E); details: RET V804E, 10 μM
Method: as §1, §2, §3

[3] = target: kinase named in conditions (Homo sapiens, UniProt Q14680); details: MELK, 10 μM
Method: as §1, §2, §3

[4] = target: kinase named in conditions (Homo sapiens, UniProt P41743); details: PRKCI (PKC iota), 10 μM
Method: as §1, §2, §3

[5] = target: kinase named in conditions (Homo sapiens, UniProt P78362); details: SRPK2, 10 μM
Method: as §1, §2, §3

[6] = target: kinase named in conditions (Homo sapiens, UniProt Q9Y6M4); details: CSNK1G3 (CK1 gamma 3), 10 μM
Method: as §1, §2, §3

[7] = target: kinase named in conditions (Homo sapiens, UniProt P53779); details: MAPK10 (JNK3), 10 μM
Method: as §1, §2, §3

[8] = target: kinase named in conditions (Homo sapiens, UniProt P52333); details: JAK3, 10 μM
Method: as §1, §2, §3

[9] = target: kinase named in conditions (Homo sapiens, UniProt Q8IY84); details: NIM1K, 10 μM
Method: as §1, §2, §3

[10] = target: kinase named in conditions (Homo sapiens, UniProt Q9HCP0); details: CSNK1G1 (CK1 gamma 1), 10 μM
Method: as §1, §2, §3

[11] = target: kinase named in conditions (Homo sapiens, UniProt P16234); details: PDGFRA (PDGFR alpha), 10 μM
Method: as §1, §2, §3

[12] = target: kinase named in conditions (Homo sapiens, UniProt P54764); details: EPHA4, 10 μM
Method: as §1, §2, §3

[13] = target: kinase named in conditions (Homo sapiens, UniProt P04049, Y340D/Y341D); details: RAF1 (cRAF) Y340D Y341D, 10 μM
Method: as §1, §2, §3

[14] = target: kinase named in conditions (Homo sapiens, UniProt P29597); details: TYK2, 10 μM
Method: as §1, §2, §3

[15] = target: kinase named in conditions (Homo sapiens, UniProt Q8WTQ7); details: GRK7, 10 μM
Method: as §1, §2, §3

[16] = target: kinase named in conditions (Homo sapiens, UniProt P41240); details: CSK, 10 μM
Method: as §1, §2, §3

[17] = target: kinase named in conditions (Homo sapiens, UniProt P06213); details: INSR, 10 μM
Method: as §1, §2, §3

[18] = target: kinase named in conditions (Homo sapiens, UniProt P23443); details: RPS6KB1 (p70S6K), 10 μM
Method: as §1, §2, §3

[19] = target: kinase named in conditions (Homo sapiens, UniProt P51955); details: NEK2, 10 μM
Method: as §1, §2, §3

[20] = target: kinase named in conditions (Homo sapiens, UniProt P27361); details: MAPK3 (ERK1), 10 μM
Method: as §1, §2, §3

[21] = target: kinase named in conditions (Homo sapiens, UniProt P45984); details: MAPK9 (JNK2), 10 μM
Method: as §1, §2, §3

[22] = target: kinase named in conditions (Homo sapiens, UniProt O95819); details: MAP4K4 (HGK), 10 μM
Method: as §1, §2, §3

[23] = target: kinase named in conditions (Homo sapiens, UniProt Q07002); details: CDK18/cyclin Y, 10 μM
Method: as §1, §2, §3

[24] = target: kinase named in conditions (Homo sapiens, UniProt P68400); details: CSNK2A1 (CK2 alpha 1), 10 μM
Method: as §1, §2, §3

[25] = target: kinase named in conditions (Homo sapiens, UniProt P06241); details: FYN, 10 μM
Method: as §1, §2, §3

[26] = target: kinase named in conditions (Homo sapiens, UniProt P36507); details: MAP2K2 (MEK2), 10 μM
Method: as §1, §2, §3

[27] = target: kinase named in conditions (Homo sapiens, UniProt Q04912); details: MST1R (RON), 10 μM
Method: as §1, §2, §3

[28] = target: kinase named in conditions (Homo sapiens, UniProt Q8IU85); details: CAMK1D (CaMKI delta), 10 μM
Method: as §1, §2, §3

[29] = target: kinase named in conditions (Homo sapiens, UniProt P25098); details: ADRBK1 (GRK2), 10 μM
Method: as §1, §2, §3

[30] = target: kinase named in conditions (Homo sapiens, UniProt P24723); details: PRKCH (PKC eta), 10 μM
Method: as §1, §2, §3

[31] = target: kinase named in conditions (Homo sapiens, UniProt Q56UN5); details: MAP3K19 (YSK4), 10 μM
Method: as §1, §2, §3

[32] = target: kinase named in conditions (Homo sapiens, UniProt O76039); details: CDKL5, 10 μM
Method: as §1, §2, §3

[33] = target: kinase named in conditions (Homo sapiens, UniProt P49137); details: MAPKAPK2, 10 μM
Method: as §1, §2, §3

[34] = target: kinase named in conditions (Homo sapiens, UniProt Q14289); details: PTK2B (FAK2), 10 μM
Method: as §1, §2, §3

Sequence of kinase named in conditions (Homo sapiens, UniProt P06213) (P06213 28-1382): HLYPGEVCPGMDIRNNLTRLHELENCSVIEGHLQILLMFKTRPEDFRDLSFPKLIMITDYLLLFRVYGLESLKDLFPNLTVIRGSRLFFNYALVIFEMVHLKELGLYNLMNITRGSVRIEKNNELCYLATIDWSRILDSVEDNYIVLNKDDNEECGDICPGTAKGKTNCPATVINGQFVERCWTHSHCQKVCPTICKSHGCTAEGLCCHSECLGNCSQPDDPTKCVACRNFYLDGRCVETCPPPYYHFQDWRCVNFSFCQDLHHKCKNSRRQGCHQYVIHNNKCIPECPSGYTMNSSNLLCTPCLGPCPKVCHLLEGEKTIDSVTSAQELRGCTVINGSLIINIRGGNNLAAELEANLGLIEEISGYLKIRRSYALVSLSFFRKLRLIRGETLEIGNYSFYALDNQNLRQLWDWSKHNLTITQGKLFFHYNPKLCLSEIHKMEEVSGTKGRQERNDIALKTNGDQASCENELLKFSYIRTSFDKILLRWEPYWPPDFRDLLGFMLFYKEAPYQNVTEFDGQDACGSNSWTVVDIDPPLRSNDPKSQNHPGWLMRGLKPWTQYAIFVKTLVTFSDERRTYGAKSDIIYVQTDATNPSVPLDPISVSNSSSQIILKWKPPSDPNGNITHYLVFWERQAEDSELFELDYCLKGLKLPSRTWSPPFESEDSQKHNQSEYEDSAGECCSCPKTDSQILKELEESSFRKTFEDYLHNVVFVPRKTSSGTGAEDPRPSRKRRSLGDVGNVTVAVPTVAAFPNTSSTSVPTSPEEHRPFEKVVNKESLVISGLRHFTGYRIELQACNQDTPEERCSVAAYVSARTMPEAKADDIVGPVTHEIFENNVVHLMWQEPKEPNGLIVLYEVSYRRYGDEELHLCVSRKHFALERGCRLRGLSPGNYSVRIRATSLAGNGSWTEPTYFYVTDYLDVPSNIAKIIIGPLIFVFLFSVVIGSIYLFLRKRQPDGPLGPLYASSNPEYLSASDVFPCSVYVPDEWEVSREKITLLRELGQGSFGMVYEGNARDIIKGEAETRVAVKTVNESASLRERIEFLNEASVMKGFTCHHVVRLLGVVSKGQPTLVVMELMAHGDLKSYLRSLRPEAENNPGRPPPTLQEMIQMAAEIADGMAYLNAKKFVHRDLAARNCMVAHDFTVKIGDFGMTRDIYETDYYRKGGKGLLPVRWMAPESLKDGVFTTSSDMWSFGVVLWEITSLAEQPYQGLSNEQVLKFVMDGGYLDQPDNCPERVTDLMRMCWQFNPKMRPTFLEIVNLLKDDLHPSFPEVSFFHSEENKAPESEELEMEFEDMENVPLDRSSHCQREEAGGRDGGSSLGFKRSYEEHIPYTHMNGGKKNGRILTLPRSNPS
Sequence of kinase named in conditions (Homo sapiens, UniProt Q9HCP0) (Q9HCP0 whole entry): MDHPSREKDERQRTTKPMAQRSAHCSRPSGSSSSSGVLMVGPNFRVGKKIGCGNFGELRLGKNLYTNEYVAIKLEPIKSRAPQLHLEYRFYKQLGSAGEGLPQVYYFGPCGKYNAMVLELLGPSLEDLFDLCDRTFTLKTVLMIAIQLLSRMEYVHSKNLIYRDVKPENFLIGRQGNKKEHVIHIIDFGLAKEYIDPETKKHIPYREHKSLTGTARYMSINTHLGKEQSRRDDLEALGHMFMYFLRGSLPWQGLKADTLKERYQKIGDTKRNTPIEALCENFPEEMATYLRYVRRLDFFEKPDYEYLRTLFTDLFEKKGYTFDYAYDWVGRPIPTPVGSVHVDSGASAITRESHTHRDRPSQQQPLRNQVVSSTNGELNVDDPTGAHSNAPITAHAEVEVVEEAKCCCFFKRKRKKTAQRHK
Sequence of kinase named in conditions (Homo sapiens, UniProt O76039) (O76039 whole entry): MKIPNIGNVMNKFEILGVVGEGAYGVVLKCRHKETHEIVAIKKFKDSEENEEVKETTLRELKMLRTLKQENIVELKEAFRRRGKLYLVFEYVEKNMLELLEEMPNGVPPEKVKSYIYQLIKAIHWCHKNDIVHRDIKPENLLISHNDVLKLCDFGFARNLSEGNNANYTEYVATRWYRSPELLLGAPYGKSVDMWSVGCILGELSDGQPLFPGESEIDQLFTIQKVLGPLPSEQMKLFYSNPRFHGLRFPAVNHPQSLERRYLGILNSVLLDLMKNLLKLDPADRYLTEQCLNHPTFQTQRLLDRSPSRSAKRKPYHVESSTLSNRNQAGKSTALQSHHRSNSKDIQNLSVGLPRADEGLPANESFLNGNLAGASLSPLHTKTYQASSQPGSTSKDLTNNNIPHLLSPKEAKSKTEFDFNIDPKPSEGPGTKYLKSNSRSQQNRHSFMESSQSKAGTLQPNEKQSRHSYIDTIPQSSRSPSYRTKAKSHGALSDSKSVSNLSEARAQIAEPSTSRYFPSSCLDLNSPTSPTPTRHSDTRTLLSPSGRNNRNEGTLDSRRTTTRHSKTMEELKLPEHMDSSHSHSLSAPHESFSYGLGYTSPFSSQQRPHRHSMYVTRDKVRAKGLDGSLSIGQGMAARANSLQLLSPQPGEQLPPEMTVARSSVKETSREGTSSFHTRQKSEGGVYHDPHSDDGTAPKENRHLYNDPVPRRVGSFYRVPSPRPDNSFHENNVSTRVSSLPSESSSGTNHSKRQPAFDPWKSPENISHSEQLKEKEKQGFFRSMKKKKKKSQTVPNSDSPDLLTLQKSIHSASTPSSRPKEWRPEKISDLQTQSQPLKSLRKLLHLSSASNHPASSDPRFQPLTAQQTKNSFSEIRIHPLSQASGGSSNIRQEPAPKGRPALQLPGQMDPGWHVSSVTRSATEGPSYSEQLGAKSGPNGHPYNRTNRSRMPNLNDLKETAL
Sequence of kinase named in conditions (Homo sapiens, UniProt P53779) (P53779 whole entry): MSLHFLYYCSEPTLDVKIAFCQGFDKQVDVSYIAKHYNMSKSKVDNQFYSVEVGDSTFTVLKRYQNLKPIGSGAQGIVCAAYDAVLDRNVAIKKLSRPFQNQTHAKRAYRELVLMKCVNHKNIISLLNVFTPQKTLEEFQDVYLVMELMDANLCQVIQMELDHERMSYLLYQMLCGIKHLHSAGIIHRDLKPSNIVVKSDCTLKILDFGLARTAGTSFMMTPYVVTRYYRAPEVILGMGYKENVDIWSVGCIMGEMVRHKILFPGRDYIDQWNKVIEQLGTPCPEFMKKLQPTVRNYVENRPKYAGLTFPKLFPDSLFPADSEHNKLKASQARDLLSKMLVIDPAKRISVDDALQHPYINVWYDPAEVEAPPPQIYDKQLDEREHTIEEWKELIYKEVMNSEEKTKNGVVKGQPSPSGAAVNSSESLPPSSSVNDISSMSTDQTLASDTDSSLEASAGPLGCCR
Sequence of kinase named in conditions (Homo sapiens, UniProt Q04912) (Q04912 25-1400): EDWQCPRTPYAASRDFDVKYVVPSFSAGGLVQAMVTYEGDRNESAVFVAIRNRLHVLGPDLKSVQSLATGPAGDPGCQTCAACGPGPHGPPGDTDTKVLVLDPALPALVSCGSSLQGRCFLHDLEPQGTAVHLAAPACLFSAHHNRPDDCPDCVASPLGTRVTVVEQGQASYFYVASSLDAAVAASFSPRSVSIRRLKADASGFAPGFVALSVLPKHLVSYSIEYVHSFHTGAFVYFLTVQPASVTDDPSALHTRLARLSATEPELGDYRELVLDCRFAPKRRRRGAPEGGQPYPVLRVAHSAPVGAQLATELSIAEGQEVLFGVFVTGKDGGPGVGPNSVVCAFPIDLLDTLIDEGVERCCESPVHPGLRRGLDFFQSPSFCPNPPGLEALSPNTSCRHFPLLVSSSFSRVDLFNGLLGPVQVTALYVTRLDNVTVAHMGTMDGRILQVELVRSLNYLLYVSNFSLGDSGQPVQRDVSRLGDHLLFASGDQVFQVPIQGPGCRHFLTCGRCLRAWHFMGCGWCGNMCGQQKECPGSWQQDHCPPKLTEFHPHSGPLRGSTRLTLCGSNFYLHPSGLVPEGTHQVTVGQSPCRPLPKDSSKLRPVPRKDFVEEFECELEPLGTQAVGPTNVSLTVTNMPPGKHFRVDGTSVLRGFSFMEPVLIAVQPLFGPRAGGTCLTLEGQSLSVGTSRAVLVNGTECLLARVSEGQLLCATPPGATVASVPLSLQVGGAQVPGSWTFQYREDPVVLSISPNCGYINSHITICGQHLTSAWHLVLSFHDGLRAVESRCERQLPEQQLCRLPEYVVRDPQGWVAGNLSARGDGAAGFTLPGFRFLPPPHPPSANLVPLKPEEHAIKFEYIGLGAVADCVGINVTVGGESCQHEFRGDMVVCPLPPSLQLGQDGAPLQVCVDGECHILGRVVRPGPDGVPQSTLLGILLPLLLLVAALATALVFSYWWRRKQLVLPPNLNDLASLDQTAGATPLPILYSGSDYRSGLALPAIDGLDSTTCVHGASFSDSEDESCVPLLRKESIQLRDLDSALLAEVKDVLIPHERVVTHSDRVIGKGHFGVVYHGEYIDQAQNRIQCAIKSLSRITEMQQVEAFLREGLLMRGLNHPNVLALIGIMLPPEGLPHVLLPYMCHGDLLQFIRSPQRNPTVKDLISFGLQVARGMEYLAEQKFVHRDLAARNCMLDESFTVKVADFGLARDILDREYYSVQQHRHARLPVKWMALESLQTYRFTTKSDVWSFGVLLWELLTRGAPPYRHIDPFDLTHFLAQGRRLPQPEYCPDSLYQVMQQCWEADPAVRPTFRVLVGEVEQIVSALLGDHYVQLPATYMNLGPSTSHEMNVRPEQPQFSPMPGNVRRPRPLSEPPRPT
Sequence of kinase named in conditions (Homo sapiens, UniProt P23443) (P23443 whole entry): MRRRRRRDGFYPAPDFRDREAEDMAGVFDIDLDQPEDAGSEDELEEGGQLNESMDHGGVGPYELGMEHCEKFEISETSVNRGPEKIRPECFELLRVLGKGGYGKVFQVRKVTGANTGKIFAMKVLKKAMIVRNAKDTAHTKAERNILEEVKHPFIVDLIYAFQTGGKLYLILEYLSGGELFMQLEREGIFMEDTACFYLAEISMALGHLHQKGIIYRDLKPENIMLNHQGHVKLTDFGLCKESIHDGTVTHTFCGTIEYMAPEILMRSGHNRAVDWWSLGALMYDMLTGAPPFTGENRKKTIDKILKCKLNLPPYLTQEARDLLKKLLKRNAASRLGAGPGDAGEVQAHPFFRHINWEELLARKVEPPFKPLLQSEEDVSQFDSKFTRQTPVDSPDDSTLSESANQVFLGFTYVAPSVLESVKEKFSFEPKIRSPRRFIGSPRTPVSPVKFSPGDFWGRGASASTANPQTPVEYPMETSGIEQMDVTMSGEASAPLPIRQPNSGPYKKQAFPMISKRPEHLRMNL

With `FC(F)(F)c1c(Cl)ccc(-n2ccnn2)c1Cl` [8l, 1-(2,4-Dichloro-3-(trifluoromethyl)phenyl)-1H-1,2,3-triazole] the inhibition at 10 µM [1] was 14%, the inhibition at 10 µM [2] was 4% and the inhibition at 10 µM [3] was 12%. It also gave an inhibition at 10 µM [4] of 4%, an inhibition at 10 µM [5] of 7% and an inhibition at 10 µM [6] of 0%. For the same compound, the inhibition at 10 µM [7] was -1%, the inhibition at 10 µM [8] was 7% and the inhibition at 10 µM [9] was 5%. The inhibition at 10 µM [10] was 4%, the inhibition at 10 µM [11] was 13% and the inhibition at 10 µM [12] was 1%. The inhibition at 10 µM [13] was 10%, the inhibition at 10 µM [14] was 7% and the inhibition at 10 µM [15] was 0%. It also gave an inhibition at 10 µM [16] of 2%, an inhibition at 10 µM [17] of 6% and an inhibition at 10 µM [18] of 9%. The inhibition at 10 µM [19] was -11%, the inhibition at 10 µM [20] was 4% and the inhibition at 10 µM [21] was -17%. For the same compound, the inhibition at 10 µM [22] was -8%, the inhibition at 10 µM [23] was 4% and the inhibition at 10 µM [24] was 5%. The inhibition at 10 µM [25] was 0%, the inhibition at 10 µM [26] was 6% and the inhibition at 10 µM [27] was 11%. The inhibition at 10 µM [28] was 1%, the inhibition at 10 µM [29] was 4% and the inhibition at 10 µM [30] was -1%. It also gave an inhibition at 10 µM [31] of -5%, an inhibition at 10 µM [32] of -5% and an inhibition at 10 µM [33] of 1%. The inhibition at 10 µM [34] was 7%.
